Test results: patent US20180291335A1, “MODIFIED POLYNUCLEOTIDES FOR ALTERING CELL PHENOTYPE” (ModernaTX, Inc., priority 2012, published 2018)

What was measured:
[1] = system: human embryonic kidney 293 (HEK293) cells; experiment: Cytotoxicity of NTPs, CYTO TOX-GLO assay; type: cell-based
Method: The cytotoxicity of natural and modified nucleoside triphosphates (NTPs) alone or in combination with other bases, was analyzed in human embryonic kidney 293 (HEK293) cells in the absence of transfection reagent. […] 10 ul of the NTPs outlined in Table 12 were combined with 10 ul of lipid dilution and incubated for 30 minutes to form a complex before 80 ul of the HEK293 cell suspension was added to the NTP complex.
Natural and modified NTPs were transfected at a concentration of 2.1 nM, 21 nM, 210 nM, 2.1 um, 21 uM, 210 um or 2.1 mM. NTPs in combination were transfected at a total concentration of NTPs of 8.4 nM, 84 nM, 840 nM, 8.4 uM, 84 uM, 840 uM and 8.4 mM. […] The cytotoxicity of the NTPs and the modified G-CSF mRNA was assayed at 4, 24, 48 and 72 hours post addition to the HEK293 cells using a CYTO TOX-GLO™ assay from Promega (Madison, Wis.) following the manufacturer protocol except pippeting was used for lysing the cells instead of shaking the plates.

[2] = system: peripheral blood mononuclear cells (PBMC); experiment: In vitro screening in PBMC: G-CSF protein expression by ELISA; type: cell-based, human
Text: (§1) The supernatant was harvested and stored frozen until analyzed by ELISA to determine the G-CSF protein expression, and the induction of the cytokines interferon-alpha (IFN-α) and tumor necrosis factor alpha (TNF-α).

[3] = system: interferon-alpha (IFN-α); experiment: In vitro screening in PBMC: interferon-alpha induction by ELISA; type: cell-based, human
Text: as §1

[4] = system: tumor necrosis factor alpha (TNF-α); experiment: In vitro screening in PBMC: tumor necrosis factor alpha induction by ELISA; type: cell-based, human
Text: as §1

[5] = PBMC Donor 1, 500 ng G-CSF mRNA
[6] = PBMC Donor 2, 500 ng G-CSF mRNA
[7] = PBMC Donor 3, 500 ng G-CSF mRNA

Cn1cc([C@@H]2O[C@H](CO)[C@@H](O)[C@H]2O)c(=O)[nH]c1=O [N1-methyl pseudouridine]
percent of viable cells ([1]; human, 4 h, 2.1 nM): 91.89% | percent of viable cells ([1]; human, 4 h, 21 nM): 91.44% | percent of viable cells ([1]; human, 4 h, 210 nM): 92.15% | percent of viable cells ([1]; human, 4 h, 2.1 uM): 90.41% | percent of viable cells ([1]; human, 4 h, 21 uM): 91.48% | percent of viable cells ([1]; human, 4 h, 210 uM): 91.43% | percent of viable cells ([1]; human, 4 h, 2.1 mM): 92.45% | percent of viable cells ([1]; human, 24 h, 2.1 nM): 87.79% | percent of viable cells ([1]; human, 24 h, 21 nM): 86.85% | percent of viable cells ([1]; human, 24 h, 210 nM): 85.89% | percent of viable cells ([1]; human, 24 h, 2.1 uM): 85.72% | percent of viable cells ([1]; human, 24 h, 21 uM): 85.17% | percent of viable cells ([1]; human, 24 h, 210 uM): 86.48% | percent of viable cells ([1]; human, 24 h, 2.1 mM): 88.92% | percent of viable cells ([1]; human, 48 h, 2.1 nM): 87.81% | percent of viable cells ([1]; human, 48 h, 21 nM): 86.72% | percent of viable cells ([1]; human, 48 h, 210 nM): 87.38% | percent of viable cells ([1]; human, 48 h, 2.1 uM): 85.85% | percent of viable cells ([1]; human, 48 h, 21 uM): 87.52% | percent of viable cells ([1]; human, 48 h, 210 uM): 86.02% | percent of viable cells ([1]; human, 48 h, 2.1 mM): 89.84% | percent of viable cells ([1]; human, 72 h, 2.1 nM): 92.98% | percent of viable cells ([1]; human, 72 h, 21 nM): 92.84% | percent of viable cells ([1]; human, 72 h, 210 nM): 92.40% | percent of viable cells ([1]; human, 72 h, 2.1 uM): 92.25% | percent of viable cells ([1]; human, 72 h, 21 uM): 93.83% | percent of viable cells ([1]; human, 72 h, 210 uM): 93.03% | percent of viable cells ([1]; human, 72 h, 2.1 mM): 96.80%

Cc1c[nH]c(=O)nc1N [5-methyl cytosine]
percent of viable cells ([1]; human, 4 h, 2.1 nM): 92.23% | percent of viable cells ([1]; human, 4 h, 21 nM): 91.40% | percent of viable cells ([1]; human, 4 h, 210 nM): 92.31% | percent of viable cells ([1]; human, 4 h, 2.1 uM): 91.31% | percent of viable cells ([1]; human, 4 h, 21 uM): 91.16% | percent of viable cells ([1]; human, 4 h, 210 uM): 91.54% | percent of viable cells ([1]; human, 4 h, 2.1 mM): 92.01% | percent of viable cells ([1]; human, 24 h, 2.1 nM): 86.35% | percent of viable cells ([1]; human, 24 h, 21 nM): 86.37% | percent of viable cells ([1]; human, 24 h, 210 nM): 84.71% | percent of viable cells ([1]; human, 24 h, 2.1 uM): 85.14% | percent of viable cells ([1]; human, 24 h, 21 uM): 84.72% | percent of viable cells ([1]; human, 24 h, 210 uM): 85.76% | percent of viable cells ([1]; human, 24 h, 2.1 mM): 87.97% | percent of viable cells ([1]; human, 48 h, 2.1 nM): 88.18% | percent of viable cells ([1]; human, 48 h, 21 nM): 87.10% | percent of viable cells ([1]; human, 48 h, 210 nM): 86.44% | percent of viable cells ([1]; human, 48 h, 2.1 uM): 86.18% | percent of viable cells ([1]; human, 48 h, 21 uM): 85.74% | percent of viable cells ([1]; human, 48 h, 210 uM): 85.94% | percent of viable cells ([1]; human, 48 h, 2.1 mM): 87.29% | percent of viable cells ([1]; human, 72 h, 2.1 nM): 91.93% | percent of viable cells ([1]; human, 72 h, 21 nM): 92.10% | percent of viable cells ([1]; human, 72 h, 210 nM): 89.97% | percent of viable cells ([1]; human, 72 h, 2.1 uM): 90.92% | percent of viable cells ([1]; human, 72 h, 21 uM): 92.26% | percent of viable cells ([1]; human, 72 h, 210 uM): 88.10% | percent of viable cells ([1]; human, 72 h, 2.1 mM): 96.08%

Adenine
percent of viable cells ([1]; HEK293, individual NTP 2.1 nM, 4 hr): 93.48% | percent of viable cells ([1]; HEK293, individual NTP 2.1 nM, 24 hr): 86.44% | percent of viable cells ([1]; HEK293, individual NTP 2.1 nM, 48 hr): 92.12% | percent of viable cells ([1]; HEK293, individual NTP 2.1 nM, 72 hr): 95.74% | percent of viable cells ([1]; HEK293, individual NTP 21 nM, 4 hr): 93.21% | percent of viable cells ([1]; HEK293, individual NTP 21 nM, 24 hr): 87.19% | percent of viable cells ([1]; HEK293, individual NTP 21 nM, 48 hr): 91.13% | percent of viable cells ([1]; HEK293, individual NTP 21 nM, 72 hr): 93.88% | percent of viable cells ([1]; HEK293, individual NTP 210 nM, 4 hr): 90.36% | percent of viable cells ([1]; HEK293, individual NTP 210 nM, 24 hr): 86.94% | percent of viable cells ([1]; HEK293, individual NTP 210 nM, 48 hr): 89.17% | percent of viable cells ([1]; HEK293, individual NTP 210 nM, 72 hr): 92.22% | percent of viable cells ([1]; HEK293, individual NTP 2.1 uM, 4 hr): 90.23% | percent of viable cells ([1]; HEK293, individual NTP 2.1 uM, 24 hr): 86.81% | percent of viable cells ([1]; HEK293, individual NTP 2.1 uM, 48 hr): 89.80% | percent of viable cells ([1]; HEK293, individual NTP 2.1 uM, 72 hr): 94.58% | percent of viable cells ([1]; HEK293, individual NTP 21 uM, 4 hr): 91.20% | percent of viable cells ([1]; HEK293, individual NTP 21 uM, 24 hr): 86.86% | percent of viable cells ([1]; HEK293, individual NTP 21 uM, 48 hr): 89.94% | percent of viable cells ([1]; HEK293, individual NTP 21 uM, 72 hr): 93.83% | percent of viable cells ([1]; HEK293, individual NTP 210 uM, 4 hr): 85.97% | percent of viable cells ([1]; HEK293, individual NTP 210 uM, 24 hr): 87.31% | percent of viable cells ([1]; HEK293, individual NTP 210 uM, 48 hr): 90.55% | percent of viable cells ([1]; HEK293, individual NTP 210 uM, 72 hr): 94.81% | percent of viable cells ([1]; HEK293, individual NTP 2.1 mM, 4 hr): 90.03% | percent of viable cells ([1]; HEK293, individual NTP 2.1 mM, 24 hr): 88.42% | percent of viable cells ([1]; HEK293, individual NTP 2.1 mM, 48 hr): 93.71% | percent of viable cells ([1]; HEK293, individual NTP 2.1 mM, 72 hr): 97.49%

B1: α-thiocytidine: G-CSF mRNA (SEQ ID NO: 408) fully modified with α-thiocytidine (nucleic acid)
chain: GGGAAAUAAGAGAGAAAAGAAGAGUAAGAAGAAAUAUAAGAGCCACCAUGGCCGGUCCCGCGACCCAAAGCCCCAUGAAACUUAUGGCCCUGCAGUUGCUGCUUUGGCACUCGGCCCUCUGGACAGUCCAAGAAGCGACUCCUCUCGGACCUGCCUCAUCGUUGCCGCAGUCAUUCCUUUUGAAGUGUCUGGAGCAGGUGCGAAAGAUUCAGGGCGAUGGAGCCGCACUCCAAGAGAAGCUCUGCGCGACAUACAAACUUUGCCAUCCCGAGGAGCUCGUACUGCUCGGGCACAGCUUGGGGAUUCCCUGGGCUCCUCUCUCGUCCUGUCCGUCGCAGGCUUUGCAGUUGGCAGGGUGCCUUUCCCAGCUCCACUCCGGUUUGUUCUUGUAUCAGGGACUGCUGCAAGCCCUUGAGGGAAUCUCGCCAGAAUUGGGCCCGACGCUGGACACGUUGCAGCUCGACGUGGCGGAUUUCGCAACAACCAUCUGGCAGCAGAUGGAGGAACUGGGGAUGGCACCCGCGCUGCAGCCCACGCAGGGGGCAAUGCCGGCCUUUGCGUCCGCGUUUCAGCGCAGGGCGGGUGGAGUCCUCGUAGCGAGCCACCUUCAAUCAUUUUUGGAAGUCUCGUACCGGGUGCUGAGACAUCUUGCGCAGCCGUGAAGCGCUGCCUUCUGCGGGGCUUGCCUUCUGGCCAUGCCCUUCUUCUCUCCCUUGCACCUGUACCUCUUGGUCUUUGAAUAAAGCCUGAGUAGGAAG
modifications: α-thiocytidine modified; Description of Artificial Sequence: Synthetic Transcript Sequence
G-CSF Protein Expression [2, 5]: 105 pg/mL | G-CSF Protein Expression [2, 6]: 264 pg/mL | G-CSF Protein Expression [2, 7]: 245 pg/mL | IFN-α Expression [3, 5]: 1,138 pg/ml | IFN-α Expression [3, 6]: 565 pg/mL | IFN-α Expression [3, 7]: 695 pg/mL | cytokine induction ([3]; PBMC, G-CSF mRNA, result in words): increase cytokine stimulation | TNF-α Expression [4, 5]: 300 pg/mL | TNF-α Expression [4, 6]: 273 pg/mL | TNF-α Expression [4, 7]: 277 pg/mL

B2: mCherry: control mCherry mRNA (SEQ ID NO: 410, Cap1) fully modified with 5-methylcytosine and pseudouridine (nucleic acid)
chain: GGGAAAUAAGAGAGAAAAGAAGAGUAAGAAGAAAUAUAAGAGCCACCAUGGUAUCCAAGGGGGAGGAGGACAACAUGGCGAUCAUCAAGGAGUUCAUGCGAUUCAAGGUGCACAUGGAAGGUUCGGUCAACGGACACGAAUUUGAAAUCGAAGGAGAGGGUGAAGGAAGGCCCUAUGAAGGGACACAGACCGCGAAACUCAAGGUCACGAAAGGGGGACCACUUCCUUUCGCCUGGGACAUUCUUUCGCCCCAGUUUAUGUACGGGUCCAAAGCAUAUGUGAAGCAUCCCGCCGAUAUUCCUGACUAUCUGAAACUCAGCUUUCCCGAGGGAUUCAAGUGGGAGCGGGUCAUGAACUUUGAGGACGGGGGUGUAGUCACCGUAACCCAAGACUCAAGCCUCCAAGACGGCGAGUUCAUCUACAAGGUCAAACUGCGGGGGACUAACUUUCCGUCGGAUGGGCCGGUGAUGCAGAAGAAAACGAUGGGAUGGGAAGCGUCAUCGGAGAGGAUGUACCCAGAAGAUGGUGCAUUGAAGGGGGAGAUCAAGCAGAGACUGAAGUUGAAAGAUGGGGGACAUUAUGAUGCCGAGGUGAAAACGACAUACAAAGCGAAAAAGCCGGUGCAGCUUCCCGGAGCGUAUAAUGUGAAUAUCAAGUUGGAUAUUACUUCACACAAUGAGGACUACACAAUUGUCGAACAGUACGAACGCGCUGAGGGUAGACACUCGACGGGAGGCAUGGACGAGUUGUACAAAUGAUAAGCUGCCUUCUGCGGGGCUUGCCUUCUGGCCAUGCCCUUCUUCUCUCCCUUGCACCUGUACCUCUUGGUCUUUGAAUAAAGCCUGAGUAGGAAG
modifications: Cap1; 5mC/pseudoU modified; Description of Artificial Sequence: Synthetic Transcript Sequence
G-CSF Protein Expression [2, 5]: 5 pg/mL | G-CSF Protein Expression [2, 6]: 168 pg/mL | G-CSF Protein Expression [2, 7]: 164 pg/mL | IFN-α Expression [3, 5]: 100 pg/mL | IFN-α Expression [3, 6]: 75 pg/mL | IFN-α Expression [3, 7]: 143 pg/mL | TNF-α Expression [4, 5]: 67 pg/mL | TNF-α Expression [4, 6]: 100 pg/mL | TNF-α Expression [4, 7]: 133 pg/mL
